Data on 18 compounds can be found in US20240050428A1 (Cullgen (Shanghai), Inc., priority 2020, published 2024).

Read-outs that look alike come from different tables or passages of the source.

Experiment [1] has as its system MV4;11 cells. Briefly: Cell viability assay (CellTiter-Glo) in MV4;11 cells, alone or with gilteritinib. Format: cell-based. Particulars: MV4;11 cells, three days, CellTiter-Glo, read-out: MV4.
For experiment [2], the system named is MOLM-13 cells. Briefly: Cell viability assay (CellTiter-Glo) in MOLM-13 cells, alone or with gilteritinib. Type of experiment: cell-based. Particulars: MOLM-13 cells, three days, CellTiter-Glo.
Setting [3] is: Homo sapiens, MV4-11, 72 h, compound alone (without gilteritinib), 11 IC50.
The mark [4] stands for this setting: Homo sapiens, MV4-11, 72 h, compound with gilteritinib 10 nM, 11 IC50 gilteritinib.
Setting [5] is: Homo sapiens, MOLM-13, 72 h, compound alone (without gilteritinib), read-out: MOLM-13 IC50.
[6] abbreviates: Homo sapiens, MOLM-13, 72 h, compound with gilteritinib 20 nM, read-out: MOLM-13 IC50 gilteritinib.

Regarding `C[C@H]1CN(c2ccc3ncc(-c4cnn([C@H]5C[C@H](CCCNc6ccc7c(c6)C(=O)N(C6CCC(=O)NC6=O)C7=O)C5)c4)nc3c2)CCN1` (stereo partly drawn) [GS-576, 2-(2,6-Dioxopiperidin-3-yl)-5-((3-(trans-3-(4-(7-((S)-3-methylpiperazin-1-yl)quinoxalin-2-yl)-1H-pyrazol-1-yl)cyclobutyl)propyl)amino)isoindoline-1,3-dione], the IC50 in experiment [1] (setting [3]) was 10 to 100 nM; in experiment [1] (setting [4]), less than 10 nM; in experiment [2] (setting [5]) it was 10 to 100 nM; in experiment [2] (setting [6]), less than 10 nM.
Consider `O=C1CCC(N2C(=O)c3ccc(NC[C@H]4C[C@H](n5cc(-c6ccccn6)cn5)C4)cc3C2=O)C(=O)N1` (stereo partly drawn) [GS-577, 2-(2,6-Dioxopiperidin-3-yl)-5-(((trans-3-(4-(pyridin-2-yl)-1H-pyrazol-1-yl)cyclobutyl)methyl)amino)isoindoline-1,3-dione], for which the IC50 was more than 1000 nM in experiment [1] (setting [3]), more than 1000 nM in experiment [1] (setting [4]), 100 to 1000 nM in experiment [2] (setting [5]) and 100 to 1000 nM in experiment [2] (setting [6]).
With `Cc1cccc(-c2cnn([C@H]3C[C@H](CNc4ccc5c(c4)C(=O)N(C4CCC(=O)NC4=O)C5=O)C3)c2)n1` (stereo partly drawn) [GS-578, 2-(2,6-Dioxopiperidin-3-yl)-5-(((trans-3-(4-(6-methylpyridin-2-yl)-1H-pyrazol-1-yl)cyclobutyl)methyl)amino)isoindoline-1,3-dione], the IC50 is more than 1000 nM in experiment [1] (setting [3]), 100 to 1000 nM in experiment [1] (setting [4]), more than 1000 nM in experiment [2] (setting [5]) and 100 to 1000 nM in experiment [2] (setting [6]).
Turning to `O=C1CCC(N2C(=O)c3ccc(NC[C@H]4C[C@H](n5cc(-c6cnc7ccccc7n6)c(C6CC6)n5)C4)cc3C2=O)C(=O)N1` (stereo partly drawn) [GS-579, 5-(((trans-3-(3-Cyclopropyl-4-(quinoxalin-2-yl)-1H-pyrazol-1-yl)cyclobutyl)methyl)amino)-2-(2,6-dioxopiperidin-3-yl)isoindoline-1,3-dione], the IC50 in experiment [1] (setting [3]), in experiment [1] (setting [4]), in experiment [2] (setting [5]) and in experiment [2] (setting [6]) was less than 10 nM each time.
Turning to `O=C1CCC(N2C(=O)c3ccc(NCCC[C@H]4C[C@H](n5cc(-c6cnc7ccc(N8CCN(C9CCC9)CC8)cc7n6)cn5)C4)cc3C2=O)C(=O)N1` (stereo partly drawn) [GS-580, 5-((3-(trans-3-(4-(7-(4-Cyclobutylpiperazin-1-yl)quinoxalin-2-yl)-1H-pyrazol-1-yl)cyclobutyl)propyl)amino)-2-(2,6-dioxopiperidin-3-yl)isoindoline-1,3-dione], the IC50 is 10 to 100 nM in experiment [1] (setting [3]), less than 10 nM in experiment [1] (setting [4]), 10 to 100 nM in experiment [2] (setting [5]) and less than 10 nM in experiment [2] (setting [6]).
On to `C[C@@H]1CN(c2ccc3ncc(-c4cnn([C@H]5C[C@H](CCCNc6ccc7c(c6)C(=O)N(C6CCC(=O)NC6=O)C7=O)C5)c4)nc3c2)CCN1C` (stereo partly drawn) [GS-581, 5-((3-(trans-3-(4-(7-((R)-3,4-Dimethylpiperazin-1-yl)quinoxalin-2-yl)-1H-pyrazol-1-yl)cyclobutyl)propyl)amino)-2-(2,6-dioxopiperidin-3-yl)isoindoline-1,3-dione], for which the IC50 was more than 1000 nM in experiment [1] (setting [3]), 10 to 100 nM in experiment [1] (setting [4]), more than 1000 nM in experiment [2] (setting [5]) and less than 10 nM in experiment [2] (setting [6]).
As for `O=C1CCC(N2C(=O)c3ccc(NCCC[C@H]4C[C@H](n5cc(-c6ccccn6)cn5)C4)cc3C2=O)C(=O)N1` (stereo partly drawn) [GS-582, 2-(2,6-Dioxopiperidin-3-yl)-5-((3-(trans-3-(4-(pyridin-2-yl)-1H-pyrazol-1-yl)cyclobutyl)propyl)amino)isoindoline-1,3-dione], the IC50 in experiment [1] (setting [3]) is 100 to 1000 nM; in experiment [1] (setting [4]), 10 to 100 nM; in experiment [2] (setting [5]) it was more than 1000 nM; in experiment [2] (setting [6]), 10 to 100 nM.
Consider `Cc1cccc(-c2cnn([C@H]3C[C@H](CCCNc4ccc5c(c4)C(=O)N(C4CCC(=O)NC4=O)C5=O)C3)c2)n1` (stereo partly drawn) [GS-584, 2-(2,6-Dioxopiperidin-3-yl)-5-((3-(trans-3-(4-(6-methylpyridin-2-yl)-1H-pyrazol-1-yl)cyclobutyl)propyl)amino)isoindoline-1,3-dione], for which the IC50 in experiment [1] (setting [3]) is 10 to 100 nM; in experiment [1] (setting [4]), 10 to 100 nM; in experiment [2] (setting [5]), 100 to 1000 nM; in experiment [2] (setting [6]) it was less than 10 nM.
Regarding `O=C1CCC(N2C(=O)c3ccc(NCCC[C@H]4C[C@H](n5cc(-c6cnc7ccc(NC8COC8)cc7n6)cn5)C4)cc3C2=O)C(=O)N1` (stereo partly drawn) [GS-585, 2-(2,6-Dioxopiperidin-3-yl)-5-((3-(trans-3-(4-(7-(oxetan-3-ylamino)quinoxalin-2-yl)-1H-pyrazol-1-yl)cyclobutyl)propyl)amino)isoindoline-1,3-dione], the IC50 in experiment [1] (setting [3]) was 10 to 100 nM; in experiment [1] (setting [4]), less than 10 nM; in experiment [2] (setting [5]), 10 to 100 nM; in experiment [2] (setting [6]), less than 10 nM.
Consider `O=C1CCC(N2C(=O)c3ccc(NCCC[C@H]4C[C@@H](n5cc(-c6cnc7cc(NC8COC8)ccc7n6)c(C6CC6)n5)C4)cc3C2=O)C(=O)N1` (stereo partly drawn) [GS-586, 5-((3-(Cis-3-(3-cyclopropyl-4-(6-(oxetan-3-ylamino)quinoxalin-2-yl)-1H-pyrazol-1-yl)cyclobutyl)propyl)amino)-2-(2,6-dioxopiperidin-3-yl)isoindoline-1,3-dione], for which the IC50 in experiment [1] (setting [3]) was 10 to 100 nM; in experiment [1] (setting [4]) it was less than 10 nM; in experiment [2] (setting [5]), 10 to 100 nM; in experiment [2] (setting [6]), less than 10 nM.
`O=C1CCC(N2C(=O)c3ccc(NCCC[C@H]4C[C@H](n5cc(-c6cnc7ccc(N8CCN(CC(F)(F)F)CC8)cc7n6)cn5)C4)cc3C2=O)C(=O)N1` (stereo partly drawn) [GS-587, 2-(2,6-Dioxopiperidin-3-yl)-5-((3-(trans-3-(4-(7-(4-(2,2,2-trifluoroethyl)piperazin-1-yl)quinoxalin-2-yl)-1H-pyrazol-1-yl)cyclobutyl)propyl)amino)isoindoline-1,3-dione]: the IC50 in experiment [1] (setting [3]) was 10 to 100 nM; in experiment [1] (setting [4]) it was less than 10 nM; in experiment [2] (setting [5]), 100 to 1000 nM; in experiment [2] (setting [6]), less than 10 nM.
On to `O=C1CCC(N2C(=O)c3ccc(NC[C@H]4C[C@H](n5ccc(C6CC6)n5)C4)cc3C2=O)C(=O)N1` (stereo partly drawn) [GS-588, 5-(((trans-3-(3-Cyclopropyl-1H-pyrazol-1-yl)cyclobutyl)methyl)amino)-2-(2,6-dioxopiperidin-3-yl)isoindoline-1,3-dione], for which the IC50 in experiment [1] (setting [3]) was more than 1000 nM; in experiment [1] (setting [4]), more than 1000 nM; in experiment [2] (setting [5]) it was 10 to 100 nM; in experiment [2] (setting [6]), 100 to 1000 nM.
Take `Cc1cccc(-c2cn([C@H]3C[C@H](CNc4ccc5c(c4)C(=O)N(C4CCC(=O)NC4=O)C5=O)C3)nc2C2CC2)n1` (stereo partly drawn) [GS-589, 5-(((trans-3-(3-Cyclopropyl-4-(6-methylpyridin-2-yl)-1H-pyrazol-1-yl)cyclobutyl)methyl)amino)-2-(2,6-dioxopiperidin-3-yl)isoindoline-1,3-dione]: the IC50 in experiment [1] (setting [3]) is 10 to 100 nM; in experiment [1] (setting [4]), less than 10 nM; in experiment [2] (setting [5]) it was 10 to 100 nM; in experiment [2] (setting [6]) it was less than 10 nM.
With `O=C1CCC(N2C(=O)c3ccc(NC[C@H]4C[C@H](n5nccc5C5CC5)C4)cc3C2=O)C(=O)N1` (stereo partly drawn) [GS-590, 5-(((trans-3-(5-cyclopropyl-1H-pyrazol-1-yl)cyclobutyl)methyl)amino)-2-(2,6-dioxopiperidin-3-yl)isoindoline-1,3-dione], the IC50 in experiment [1] (setting [3]) is more than 1000 nM; in experiment [1] (setting [4]), 100 to 1000 nM; in experiment [2] (setting [5]), less than 10 nM; in experiment [2] (setting [6]), 100 to 1000 nM.
Consider `O=C1CCC(N2C(=O)c3ccc(NCCC[C@H]4C[C@H](n5ccc(C6CC6)n5)C4)cc3C2=O)C(=O)N1` (stereo partly drawn) [GS-591, 5-((3-(trans-3-(3-Cyclopropyl-1H-pyrazol-1-yl)cyclobutyl)propyl)amino)-2-(2,6-dioxopiperidin-3-yl)isoindoline-1,3-dione], for which the IC50 in experiment [1] (setting [3]) is more than 1000 nM; in experiment [1] (setting [4]), 100 to 1000 nM; in experiment [2] (setting [5]), more than 1000 nM; in experiment [2] (setting [6]), 100 to 1000 nM.
Turning to `Cc1cccc(-c2cn([C@H]3C[C@H](CCCNc4ccc5c(c4)C(=O)N(C4CCC(=O)NC4=O)C5=O)C3)nc2C2CC2)n1` (stereo partly drawn) [GS-592, 5-((3-(trans-3-(3-Cyclopropyl-4-(6-methylpyridin-2-yl)-1H-pyrazol-1-yl)cyclobutyl)propyl)amino)-2-(2,6-dioxopiperidin-3-yl)isoindoline-1,3-dione], the IC50 was 10 to 100 nM in experiment [1] (setting [3]), less than 10 nM in experiment [1] (setting [4]), 100 to 1000 nM in experiment [2] (setting [5]) and 10 to 100 nM in experiment [2] (setting [6]).
`O=C1CCC(N2C(=O)c3ccc(NCCC[C@H]4C[C@H](n5cc(-c6cnc7ccc(N8CCN(CC(F)(F)F)CC8)cc7n6)cn5)C4)cc3C2=O)C(=O)N1` (stereo partly drawn) [GS-593, 2-(2,6-Dioxopiperidin-3-yl)-5-((3-(trans-3-(4-(7-(4-(2,2,2-trifluoroethyl)piperazin-1-yl)quinoxalin-2-yl)-1H-pyrazol-1-yl)cyclobutyl)propyl)amino)isoindoline-1,3-dione]: the IC50 is less than 10 nM in experiment [1] (compound with gilteritinib 10 nM, 11 IC50 gilteritinib) and 100 to 1000 nM in experiment [2] (compound alone (without gilteritinib), read-out: MOLM-13 IC50).
For `CN1CC2CC1CN2c1ccc2ncc(-c3cn([C@H]4C[C@H](CCCNc5ccc6c(c5)C(=O)N(C5CCC(=O)NC5=O)C6=O)C4)nc3C3CC3)nc2c1` (stereo partly drawn) [GS-594, 5-((3-(trans-3-(3-Cyclopropyl-4-(7-((1R,4R)-5-methyl-2,5-diazabicyclo[2.2.1]heptan-2-yl)quinoxalin-2-yl)-1H-pyrazol-1-yl)cyclobutyl)propyl)amino)-2-(2,6-dioxopiperidin-3-yl)isoindoline-1,3-dione], the IC50 in experiment [1] (setting [3]) was 10 to 100 nM; in experiment [1] (setting [4]), less than 10 nM; in experiment [2] (setting [5]), 100 to 1000 nM; in experiment [2] (setting [6]) it was less than 10 nM.
